# Measurements taken from US20190091163A1, “NANO-SIZED DRUG DELIVERY STRUCTURE” (INSTITUT NATIONAL DE LA SANTE ET DE LA RECHERCHE MEDICALE …, priority 2016, published 2019).
# Assays:
# SKBR3 cells [1] = test: Uptake mechanism of GO nanodrug structures with endocytosis inhibitors (flow cytometry); format: cell-based, human; conditions: 1 hour pre-incubation with inhibitor, 15 mins with nanoparticles, FIG. 10
# Experimental: The uptake mechanism of the GO nanodrug structures was then investigated using various endocytosis inhibitors in comparison with the graphene oxide drug metamaterial described here-above, free of any drug active (GO control).
# Different endocytosis inhibitors were tested: • Cytochalasin D, an inhibitor of macropinocytosis-dependent endocytosis in a dosage of 10, 5 and 1 (μM); • Genistein, an inhibitor of caveolae-mediated endocytosis in a dosage of 100, 30 and 25 (μM); and • Chlorpromazine (CMZ), an inhibitor of clathrin-mediated endocytosisin a dosage of 5, 1 and 0.5 (μM).
# Cellular internalization of each nanostructure was followed as described here-after.
# SKBR3 cells were seeded to a density of 1.0×10^5 cells per well in a 12-well plates followed by an overnight incubation. The cells were rinsed with PBS and pre-incubated with different concentrations of the appropriate endocytic inhibitor in serum-free RPMI 1640 media, for 1 hour. The media was then replaced with the same concentration of inhibitors in serum-containing RPMI 1640 media, the nanoparticles were added and cells were incubated for 15 mins. Following incubation, the medium was removed and cells were rinsed several times with cold PBS. The cells were collected with trypsin EDTA and analyzed using flow cytometry analysis.
# SKBR3 cells [2] = test: Uptake efficiency of GO-HER2 antibody nanodrug structures after preincubation with Lapatinib; format: cell-based, human; conditions: SKBR3 cells preincubated with Lapatinib; FIG. 11
# Source text: Abscissa: amount of Lapatinib (μM). Ordinate: uptake efficiency (%).
# Lapatinib is a known HER2 tyrosine kinase inhibitor, which induces stabilization and accumulation of HER2.
# [3] = tested on: MDA-MB-231 (human breast basal epithelial cancer cells); conditions: MDA-MB-231 cells, different concentrations of the peptide; Kawamoto et al. 2013; cited from earlier work
Molecule,inhibition of internalization (cellular uptake) of GO nanodrug structures (SKBR3 cells [1]),also measured
CN(C)CCCN1c2ccccc2Sc2ccc(Cl)cc21 [Chlorpromazine],did not show any notable inhibition,–
C=C1[C@@H](C)[C@H]2[C@H](Cc3ccccc3)NC(=O)[C@]23[C@H](OC(C)=O)/C=C/[C@@](C)(O)C(=O)[C@@H](C)C/C=C/[C@H]3[C@@H]1O [Cytochalasin D],significantly inhibited the internalization,–
O=c1c(-c2ccc(O)cc2)coc2cc(O)cc(O)c12 [Genistein],did not show any notable inhibition,–
CS(=O)(=O)CCNCc1ccc(-c2ccc3ncnc(Nc4ccc(OCc5cccc(F)c5)c(Cl)c4)c3c2)o1 [Lapatinib],–,effect on uptake efficiency of GO-HER2 antibody nanodrug structures (SKBR3 cells [2]): dose-dependent reduction in intake
"KLLLKLLKKLLKLLKKK (anti-cancer cationic lytic peptide) [cationic lytic anti-cancer peptide, disintegrates the cell membrane]",–,effect on cell proliferation [3]: dose-dependent reduction in cell proliferation
